Experimental data: US20090004121A1, “Combination of picotamide with nafronyl” (priority 2007, published 2009)
Where a name gives a salt, the structure may show the parent alone. Read-outs that look alike come from different tables or passages of the source.

Key:
Assay type in all cases: cell-based
Thoracic aortic rings = assay: Contracting effect on rat aortic rings (organ bath); details: mean ±S.E.M.
Protocol: Thoracic aortic rings obtained from male Wistar rats are carefully cleaned of connective tissue. The aortic rings are suspended in the isolated muscle bath (20 mL). Each segment is suspended under a tension of 1 g in Krebs buffer (NaCl 118 mM, KCl 5.4 mM, CaCl2 2.5 mM, MgCl2.6H2O 1.5 mM, NaHCO3 25 mM, NaH2PO4 1.2 mM, glucose 10 mM; pH 7.4) which was bubbled with O2 95%/CO2 5% at 37° C. in 20 mL organ baths (EMKA Technologies, Paris, France). The muscle tension of aortic rings is isometrically recorded with a force-displacement transducer IT1 (EMKA Technologies, Paris, France). The buffer is renewed at 15 min intervals during the equilibrium period (40 min) before exposing the rings to the TXA2-mimetic U-46619 (20 nM), 8-iso-prostaglandin F2α (1 μM) or serotonin (5-hydroxy-tryptamine, 5-HT, 2 μM). When a stable tension is obtained (15 min), the compound of interest is added at a cumulative increasing concentration to the bath until the tension returned to the baseline value. Tension is recorded with a specific data acquisition program (IOX 1.445, EMKA Technologies, Paris, France). The EC50 value of each drug is assessed for at least 6 concentration-response curves obtained from separate preparations. EC50 is expressed as the concentration which reduces 50% of the tension induced by the contracting agent. The results are expressed as mean ±S.E.M. Nafronyl oxalate was obtained from Sigma-Aldrich; picotamide monohydrate was obtained from the European Directory of Quality of Medicines. […] These values are in line with results obtained in previous studies (S. W. Watts and J. M. Thompson, J Pharmacol Exp Ther 309:165-172, 2004; M. Lohn et al., FASEB J 16:1057-63, 2002).

[1] = system: Thoracic aortic rings precontracted with serotonin; assay: Relaxation of rat aortic rings using serotonin 2 μM as contracting agent; details: for EC50: Rattus norvegicus, read-out: EC50 relaxing effect
Protocol: (§1) Thoracic aortic rings obtained from male Wistar rats are carefully cleaned of connective tissue. The aortic rings are suspended in the isolated muscle bath (20 mL). Each segment is suspended under a tension of 1 g in Krebs buffer (NaCl 118 mM, KCl 5.4 mM, CaCl2 2.5 mM, MgCl2.6H2O 1.5 mM, NaHCO3 25 mM, NaH2PO4 1.2 mM, glucose 10 mM; pH 7.4) which was bubbled with O2 95%/CO2 5% at 37° C. in 20 mL organ baths (EMKA Technologies, Paris, France). The muscle tension of aortic rings is isometrically recorded with a force-displacement transducer IT1 (EMKA Technologies, Paris, France). The buffer is renewed at 15 min intervals during the equilibrium period (40 min) before exposing the rings to the TXA2-mimetic U-46619 (20 nM), 8-iso-prostaglandin F2α (1 μM) or serotonin (5-hydroxy-tryptamine, 5-HT, 2 μM). When a stable tension is obtained (15 min), the compound of interest is added at a cumulative increasing concentration to the bath until the tension returned to the baseline value. Tension is recorded with a specific data acquisition program (IOX 1.445, EMKA Technologies, Paris, France). The EC50 value of each drug is assessed for at least 6 concentration-response curves obtained from separate preparations. EC50 is expressed as the concentration which reduces 50% of the tension induced by the contracting agent. The results are expressed as mean ±S.E.M. Nafronyl oxalate was obtained from Sigma-Aldrich; picotamide monohydrate was obtained from the European Directory of Quality of Medicines. Nafronyl oxalate was confirmed to be a potent serotonin antagonist with an EC50 1.54·10^−8 M for its relaxing effect.

[2] = system: rat aorta rings pretreated with 8-iso-prostaglandin F2α; assay: Relaxation of rat aortic rings using 8-iso-prostaglandin F2α 1 μM as contracting agent
Protocol: as §1, with “Relaxation experiments on aortas precontracted” for “Nafronyl oxalate was confirmed to be a potent serotonin antagonist”, “8-iso-prostaglandin F2α 1 μM were done with picotamide monohydrate alone in increasing concentrations of 10^−8 M, 10^−7 M, 10^−6 M, 10^−5 M, 10^−4 M, as well as with the same concentrations of picotamide monohydrate in the presence of 1 μM nafronyl.” for “an EC50 1.54·10^−8 M for its relaxing effect.”

| Compound | EC50 (Thoracic aortic rings) | EC50 ([2]; drug alone) | other results |
| --- | --- | --- | --- |
| CCCCC[C@H](O)/C=C/[C@@H]1[C@H](C/C=C\CCCC(=O)O)[C@@H](O)C[C@H]1O [8-iso-PGF2α, 8-iso-prostaglandin F2α] | 1000 ± 100 nM | – | – |
| COc1ccc(C(=O)NCc2cccnc2)cc1C(=O)NCc1cccnc1 [Picotamide monohydrate, N,N′-bis-(3-picolyl)-4-methoxy-isophthalamide] | – | 16.4 µM | tension reduction ([1]; 10^−5 M picotamide): 30%; EC50 ([2]; together with 10^−6 M nafronyl oxalate): 2.34 µM |
| CCCCC[C@H](O)/C=C/[C@@H]1[C@@H](C/C=C\CCCC(=O)O)[C@H]2CO[C@@H]1C2 [U-46619] | 12.2 ± 2.68 nM | – | – |

Second part, led by results:

| EC50 (Thoracic aortic rings) | EC50 ([2]; drug alone) | Compound | other results |
| --- | --- | --- | --- |
| – | 3.88 µM | CCN(CC)CCOC(=O)C(Cc1cccc2ccccc12)CC1CCCO1 (stereo not drawn) [Nafronyl oxalate, 2-diethylaminoethyl 2-(naphthalen-1-ylmethyl)-3-(oxolan-2-yl)propanoate] | EC50 ([1]; drug alone): 15.4 nM; EC50 ([1]; in the presence of 10^−6 M picotamide): 13.3 nM |
| 980 ± 90 nM | – | NCCc1c[nH]c2ccc(O)cc12 [serotonin, 5-hydroxy-tryptamine] | – |
